Reference: paper PMC8227285, “Functional Characterization of the Dopaminergic Psychostimulant Sydnocarb as an Allosteric Modulator of the Human Dopamine Transporter” (Biomedicines, 2021)
Where two headings read alike, the source gives them in different places.

Experiments:
Y156F-DAT [1] = target: T1, Y156F-DAT (Homo sapiens, UniProt Q01959, Y156F); conditions: cited from earlier work
T1 construct: expressed in transfected cells; host or cells: COS-7

wild-type DAT = target: T2, wild-type DAT (Homo sapiens, UniProt Q01959); assay: [3H]-DA uptake kinetic assay in COS-7 cells (Michaelis-Menten); assay type: cell-based; conditions: vehicle 634.8 ± 84.62, four independent experiments
T2 construct: expressed in transfected cells; host or cells: COS-7
Protocol: Transport assays were performed as described previously. Briefly, COS-7 cells were transfected and plated in 96-well plates. Uptake experiments were performed 2 days after transfection. The media was removed, and the cells were washed with PBS (137-mM NaCl, 2.7-mM KCl, 4.3-mM Na2HPO4, and 1.4-mM KH2PO4, pH 7.4) containing 0.1-mM CaCl2, 1-mM MgCl2, […], and […] (PBSCM). Following washing, a constant concentration of radiolabeled substrate (50-nM [^3H]-DA) and increasing concentrations of unlabeled substrate (0.05–100-μM DA) were added, and the uptake was allowed to continue for 10 min at room temperature. The uptake was terminated by washing twice with PBS-CM. The cells were solubilized in scintillation cocktail and counted on a microplate scintillation and luminescence counter (PerkinElmer, Waltham, MA, USA). Background was obtained from non-transfected cells and subtracted. Data were fitted to a Michaelis−Menten equation using nonlinear regression to obtain Km and Vmax.

DAT-XC/W84C mutant = target: T3, DAT-XC/W84C mutant (Homo sapiens, UniProt Q01959, C306A/W84C); assay: Substituted cysteine scanning (SCAM) MTSEA-biotin biotinylation in HEK-293 cells; assay type: cell-based
T3 construct: expressed in transfected cells; host or cells: HEK-293
T3 sequence (Q01959 1-620 W84C/C306A): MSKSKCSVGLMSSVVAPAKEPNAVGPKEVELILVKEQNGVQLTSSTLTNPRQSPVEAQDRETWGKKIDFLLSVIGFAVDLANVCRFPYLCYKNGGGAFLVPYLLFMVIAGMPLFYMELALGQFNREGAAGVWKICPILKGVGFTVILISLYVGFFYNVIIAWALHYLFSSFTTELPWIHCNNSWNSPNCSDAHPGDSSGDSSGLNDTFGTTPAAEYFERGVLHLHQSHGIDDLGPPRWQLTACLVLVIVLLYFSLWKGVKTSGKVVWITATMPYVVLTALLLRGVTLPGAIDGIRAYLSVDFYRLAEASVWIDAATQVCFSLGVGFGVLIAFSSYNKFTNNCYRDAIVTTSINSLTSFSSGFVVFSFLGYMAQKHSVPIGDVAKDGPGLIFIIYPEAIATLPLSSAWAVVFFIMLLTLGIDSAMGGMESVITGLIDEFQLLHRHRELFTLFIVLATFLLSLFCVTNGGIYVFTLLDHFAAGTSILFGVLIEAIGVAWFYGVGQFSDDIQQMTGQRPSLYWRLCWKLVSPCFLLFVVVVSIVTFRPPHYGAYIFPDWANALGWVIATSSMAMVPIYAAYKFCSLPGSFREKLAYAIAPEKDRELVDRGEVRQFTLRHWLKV
Protocol: Briefly, HEK-293 cells were transiently transfected and cultured to confluency in a 6-well plate. The cells were washed with ice-cold PBS-CM (pH 7.4) twice and incubated at 4 °C with vehicle or sydnocarb (0.5 or 2 μM) for 10 min, followed by the addition of MTSEA-biotin (125 μM, final concentration). After 10-min incubation at 4 °C, the biotinylation was quenched by aspirating the liquid and washing the cells with 1-mM DTT in PBS-CM, followed by a final wash with PBS-CM only. The cells were lysed in 600 μL of TNE lysis buffer (pH 7.4) containing protease inhibitors (100×) for 40 min at 4 °C. The cells were collected and centrifuged at 12,000× g for 10 min at 4 °C. The supernatant was collected, of which 30 μL was mixed with DTT (0.5 M, 5 μL) and LDS Nu-page (15 μL) for the total lysate sample, and saved at −20 °C. Four hundred and fifty microliters of the supernatant were incubated overnight at 4 °C with 50 μL of 50% slurry of high-capacity neutravidin agarose resin. The beads containing “biotinylated” proteins were washed with ice-cold TNE lysis three times, followed by a final wash with PBS-CM, and then mixed with LDL Nu-page (15 μL), DTT (0.5 M, 5 μL), and water (30 μL). […] Densities of he DAT bands were analyzed with an Odyssey imaging system and associated ImageStudio software (LI-COR, Lincoln, NE, USA).

hSERT = target: T4, hSERT (Homo sapiens, UniProt P31645); assay: Radioactive neurotransmitter transport inhibition assay in transiently transfected COS-7 cells; assay type: cell-based; conditions: hSERT transiently transfected COS-7 cells, mean ± SEM, three independent experiments (Figure 1A)
T4 construct: expressed in transfected cells; host or cells: COS-7
Protocol: (§1) Transiently transfected COS-7 cells (expressing hDAT, hNET, or hSERT) were plated in 96-well plates. Uptake experiments were performed 2 days later. The media was removed, and the cells were washed with PBS-CM. Following washing, the cells were incubated for 10 min with various concentrations of sydnocarb, and the uptake was initiated by adding [^3H]-dopamine to a final concentration of 25 nM. The uptake was allowed to continue for 10 min at room temperature and was terminated by washing twice with PBS-CM. The cells were solubilized in a scintillation cocktail and counted on a microplate scintillation and luminescence counter (PerkinElmer, Waltham, MA, USA). Data were fitted to a Hill equation by a nonlinear regression analysis to obtain the IC50 values.

hNET = target: T5, hNET (Homo sapiens, UniProt P23975); assay: as above; assay type: cell-based; conditions: hNET transiently transfected COS-7 cells; mean ± SEM, three independent experiments (Figure 1A)
T5 construct: expressed in transfected cells; host or cells: COS-7
Protocol: as §1

Y156F-DAT [2] = target: T1, Y156F-DAT; assay: DA uptake inhibition assay in COS-7 cells expressing DAT mutant; assay type: cell-based
Protocol: as §1

Y335A-DAT [3] = target: T6, Y335A-DAT (Homo sapiens, UniProt Q01959, Y335A); assay: as above; assay type: cell-based
T6 construct: expressed in transfected cells; host or cells: COS-7
Protocol: as §1

hDAT = target: T7, hDAT (Homo sapiens, UniProt Q01959); assay: [3H]-dopamine transport inhibition assay in transiently transfected COS-7 cells; assay type: cell-based; conditions: for IC50: mean ± SEM
T7 construct: expressed in transfected cells; host or cells: COS-7
Protocol: as §1

Y335A-DAT [4] = target: T6, Y335A-DAT; conditions: cited from earlier work

T1 sequence (Q01959 whole entry Y156F): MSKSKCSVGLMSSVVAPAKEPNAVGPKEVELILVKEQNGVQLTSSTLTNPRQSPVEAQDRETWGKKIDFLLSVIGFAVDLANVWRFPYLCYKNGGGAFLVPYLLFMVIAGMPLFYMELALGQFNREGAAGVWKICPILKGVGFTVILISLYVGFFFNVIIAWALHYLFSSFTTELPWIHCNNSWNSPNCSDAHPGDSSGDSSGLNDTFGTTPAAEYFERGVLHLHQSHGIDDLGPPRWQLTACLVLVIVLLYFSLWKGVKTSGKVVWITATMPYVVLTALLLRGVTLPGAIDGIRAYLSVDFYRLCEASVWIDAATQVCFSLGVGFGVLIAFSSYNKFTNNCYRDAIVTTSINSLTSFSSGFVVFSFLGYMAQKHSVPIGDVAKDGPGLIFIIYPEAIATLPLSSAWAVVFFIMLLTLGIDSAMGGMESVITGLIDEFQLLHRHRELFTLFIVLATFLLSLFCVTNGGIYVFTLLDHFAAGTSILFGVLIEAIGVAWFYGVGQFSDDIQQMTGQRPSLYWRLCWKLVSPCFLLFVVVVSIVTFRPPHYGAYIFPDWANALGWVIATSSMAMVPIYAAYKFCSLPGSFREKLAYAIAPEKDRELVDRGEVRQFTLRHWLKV
T7 sequence (Q01959 whole entry): as the sequence (Q01959 whole entry Y156F) above, with F156Y counted along it
T6 sequence (Q01959 whole entry Y335A): as the sequence (Q01959 whole entry Y156F) above, with F156Y, Y335A counted along it
T4 sequence (P31645 whole entry): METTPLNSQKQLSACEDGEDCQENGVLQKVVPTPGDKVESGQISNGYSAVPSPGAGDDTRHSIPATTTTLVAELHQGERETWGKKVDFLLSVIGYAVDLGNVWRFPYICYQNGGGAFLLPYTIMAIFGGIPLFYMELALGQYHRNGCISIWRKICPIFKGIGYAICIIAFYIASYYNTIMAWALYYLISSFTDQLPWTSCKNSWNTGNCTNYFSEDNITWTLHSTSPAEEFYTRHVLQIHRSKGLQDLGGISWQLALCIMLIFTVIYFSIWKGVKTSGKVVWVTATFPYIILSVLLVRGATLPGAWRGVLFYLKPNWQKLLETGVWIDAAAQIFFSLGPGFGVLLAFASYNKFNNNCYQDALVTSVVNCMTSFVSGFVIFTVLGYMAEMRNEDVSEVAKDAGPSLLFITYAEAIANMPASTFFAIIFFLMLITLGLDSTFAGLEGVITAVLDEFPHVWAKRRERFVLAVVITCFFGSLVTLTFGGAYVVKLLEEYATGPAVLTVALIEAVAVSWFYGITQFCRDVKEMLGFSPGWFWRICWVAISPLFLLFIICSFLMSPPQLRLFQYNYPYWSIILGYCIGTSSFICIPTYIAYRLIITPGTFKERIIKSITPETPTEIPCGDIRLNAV
T2 sequence (Q01959 whole entry): as the sequence (Q01959 whole entry Y156F) above, with F156Y counted along it
T5 sequence (P23975 whole entry): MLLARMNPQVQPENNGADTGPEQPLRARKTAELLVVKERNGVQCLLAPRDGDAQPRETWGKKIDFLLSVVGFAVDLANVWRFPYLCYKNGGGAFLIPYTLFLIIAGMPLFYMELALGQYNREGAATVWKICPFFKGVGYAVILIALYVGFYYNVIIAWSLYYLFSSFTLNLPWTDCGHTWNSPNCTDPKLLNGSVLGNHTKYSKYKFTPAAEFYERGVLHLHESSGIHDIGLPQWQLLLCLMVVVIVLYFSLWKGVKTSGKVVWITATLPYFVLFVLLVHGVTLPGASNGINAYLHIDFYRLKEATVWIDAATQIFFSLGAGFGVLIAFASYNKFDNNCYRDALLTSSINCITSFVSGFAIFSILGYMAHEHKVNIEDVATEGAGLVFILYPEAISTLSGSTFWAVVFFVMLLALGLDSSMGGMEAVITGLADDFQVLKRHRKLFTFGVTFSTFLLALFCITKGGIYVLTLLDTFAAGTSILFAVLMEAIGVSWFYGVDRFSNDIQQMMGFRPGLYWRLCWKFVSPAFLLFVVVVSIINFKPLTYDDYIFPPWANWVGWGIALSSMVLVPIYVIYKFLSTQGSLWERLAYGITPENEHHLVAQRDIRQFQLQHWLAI

## CCCCN1[C@@H]2CC[C@H]1CC(OC(c1ccc(F)cc1)c1ccc(F)cc1)C2 (stereo partly shown) [JHW-007]
Y156F-DAT [1]
  effect of Y156F mutation on potency: significantly reduced

## CC(Cc1ccccc1)[n+]1cc([N-]C(=O)Nc2ccccc2)on1 (stereo not shown) [sydnocarb]
wild-type DAT; in the presence of 0.5 µM Sydnocarb
  Vmax of DAT-mediated [3H]-DA uptake: 455.6 ± 89.6 femtomole/min/well
wild-type DAT; in the presence of 2.0 µM Sydnocarb
  Vmax of DAT-mediated [3H]-DA uptake: 195 ± 80.7 femtomole/min/well
DAT-XC/W84C mutant; coincubation with 1 µM sydnocarb, four independent experiments
  biotinylation of W84C by MTSEA-biotin: significantly decreased
hSERT
  IC50: 495000 ± 17000 nM
hSERT; listed as Sydnocarb
  IC50: 495000 ± 17000 nM
hNET
  IC50: 34900 ± 14100 nM
Y156F-DAT [2]; COS-7 cells
  change in potency, Y156F-DAT versus WT-DAT: no significant changes
Y156F-DAT [2]; Y156F-DAT-transfected COS-7 cells, mean ± SEM, three independent experiments
  IC50: 262 ± 118 nM
Y335A-DAT [3]; COS-7 cells
  reduction of potency for Y335A-DAT compared with WT-DAT: 3.5 fold
Y335A-DAT [3]; Y335A-DAT-transfected COS-7 cells, mean ± SEM, three independent experiments
  IC50: 1420 ± 201 nM
hDAT; WT-DAT-transfected COS-7 cells, mutant comparison (Figure 6), three independent experiments, read-out: IC50, DA uptake inhibition
  IC50: 439 ± 135 nM
hDAT; from dose-response IC50 values
  fold more potent towards hDAT than towards hNET: 70 fold
  fold more potent towards hDAT than towards hSERT: 1000 fold
hDAT; hDAT transiently transfected COS-7 cells, three independent experiments (Figure 1A), listed as Sydnocarb, read-out: IC50, transport inhibition
  IC50: 493 ± 140 nM
hDAT; hDAT transiently transfected COS-7 cells, three independent experiments (Figure 1A), read-out: IC50, transport inhibition
  IC50: 490 ± 140 nM

## COC(=O)[C@H]1[C@@H](OC(=O)c2ccccc2)C[C@@H]2CC[C@H]1N2C [cocaine]
DAT-XC/W84C mutant; coincubation with 100 µM cocaine (negative control)
  labeling of W84C with MTSEA-biotin: not affected
Y156F-DAT [1]
  effect of Y156F mutation on binding affinities: unaffected
Y335A-DAT [4]
  effect of Y335A mutation on potency: markedly impaired
